Source: PMC11191600 (ACS chemical neuroscience, 2024)
Converted amounts (≈) assume the structure as drawn. Read-outs that look alike come from different tables or passages of the source.

What was measured:
[1] = molecular target: T1, human dopamine D4.4 receptor (Homo sapiens, UniProt P21917); experiment: Human dopamine D4.4 receptor radioligand binding assay (Eurofins); parameters: % Inhibition at D4.4: dose or concentration left out as unconfirmed; conditions: for % Inhibition at 10 μM D4.4: [3H]Spiperone binding; for inhibition at 10 µM: read-out: % Inhibition at 10 μM D4.4
T1 sequence (P21917 1-419): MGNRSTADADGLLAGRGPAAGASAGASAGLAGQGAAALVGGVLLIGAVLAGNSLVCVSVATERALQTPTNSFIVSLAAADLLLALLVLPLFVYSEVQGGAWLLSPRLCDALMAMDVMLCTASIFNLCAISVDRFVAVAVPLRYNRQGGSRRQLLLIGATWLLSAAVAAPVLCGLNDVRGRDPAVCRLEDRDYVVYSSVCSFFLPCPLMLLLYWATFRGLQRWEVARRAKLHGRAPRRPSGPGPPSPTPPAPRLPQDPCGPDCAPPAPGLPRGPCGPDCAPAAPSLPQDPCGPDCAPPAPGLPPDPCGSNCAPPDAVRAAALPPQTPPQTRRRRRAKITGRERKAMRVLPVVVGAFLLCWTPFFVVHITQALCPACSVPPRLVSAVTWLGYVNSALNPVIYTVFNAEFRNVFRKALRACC

[2] = molecular target: human dopamine D3 receptor (Homo sapiens, UniProt P35462); experiment: Human dopamine D3 receptor radioligand binding assay (Eurofins); conditions: for % Inhibition at 10 μM D3: [3H]Spiperone binding, Eurofins Discovery
[3] = molecular target: human dopamine D1 receptor (Homo sapiens, UniProt P21728); experiment: Human dopamine D1 receptor radioligand binding assay (Eurofins); conditions: for % Inhibition at 10 μM D1: [3H]SCH-23390 binding, Eurofins Discovery
[4] = Kinetic solubility (shake flask, McIlvaine buffer); type: physicochemical; conditions: for Solubility pH = 2.2 / Solubility pH = 6.8: kinetic, 100 µM, 18 hours room temperature; for Solubility pH = 2.2: McIlvaine buffer pH 2.2; for Solubility pH = 6.8: McIlvaine buffer pH 6.8; for solubility at 18 h: McIlvaine buffer, kinetic from dmso stock
[5] = molecular target: human dopamine D2S receptor (Homo sapiens, UniProt P14416); experiment: Human dopamine D2S receptor radioligand binding assay (Eurofins); conditions: for % Inhibition at 10 μM D2S: [3H]Spiperone binding, Eurofins Discovery
[6] = molecular target: Human recombinant dopamine D2L receptor (Homo sapiens, UniProt P14416); experiment: Human dopamine D2L receptor radioligand binding assay (Eurofins); conditions: for % Inhibition at 10 μM D2L: [3H]Spiperone binding, Eurofins Discovery
[7] = Microsomal stability, human hepatic microsomes; type: in vitro ADME; conditions: predicted hepatic clearance
[8] = Plasma protein binding, equilibrium dialysis, human plasma; type: in vitro ADME
[9] = Plasma protein binding, equilibrium dialysis, rat plasma; type: in vitro ADME
[10] = Microsomal stability, rat hepatic microsomes; type: in vitro ADME; conditions: predicted hepatic clearance
[11] = In vivo pharmacokinetics, intravenous cassette dosing in rats; parameters: species or system male Sprague-Dawley rats; conditions: rat; for AUC (area under the curve) / CLp (plasma clearance) / Vss (volume of distribution at steady-state) / t1/2 (terminal phase plasma half-life): intravenous 0.2 mg/kg, cassette; for in vivo clearance relative to hepatic blood flow (superhepatic clearance): intravenous dosing
[12] = Metabolite profiling in rat hepatocytes; type: in vitro ADME; conditions: 4 h
[13] = Metabolite profiling in human hepatocytes; type: in vitro ADME; conditions: 4 h
[14] = read-out: D4.4 IC50, Eurofins Discovery
[15] = read-out: D4.4 Ki, Eurofins Discovery

Sequence of human dopamine D2S receptor (P14416 1-414 isoform P14416-2): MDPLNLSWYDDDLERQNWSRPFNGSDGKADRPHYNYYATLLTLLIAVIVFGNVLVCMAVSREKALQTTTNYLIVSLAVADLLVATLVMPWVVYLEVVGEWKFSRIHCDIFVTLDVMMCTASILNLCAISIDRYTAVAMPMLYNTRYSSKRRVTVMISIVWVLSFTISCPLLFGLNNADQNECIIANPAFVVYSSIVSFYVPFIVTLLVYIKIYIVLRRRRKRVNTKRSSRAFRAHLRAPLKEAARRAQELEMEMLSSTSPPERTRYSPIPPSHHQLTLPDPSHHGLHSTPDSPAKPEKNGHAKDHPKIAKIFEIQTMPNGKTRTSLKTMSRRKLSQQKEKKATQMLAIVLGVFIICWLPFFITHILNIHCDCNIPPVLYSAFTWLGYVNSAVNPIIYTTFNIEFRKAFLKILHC
Sequence of human dopamine D1 receptor (P21728 whole entry): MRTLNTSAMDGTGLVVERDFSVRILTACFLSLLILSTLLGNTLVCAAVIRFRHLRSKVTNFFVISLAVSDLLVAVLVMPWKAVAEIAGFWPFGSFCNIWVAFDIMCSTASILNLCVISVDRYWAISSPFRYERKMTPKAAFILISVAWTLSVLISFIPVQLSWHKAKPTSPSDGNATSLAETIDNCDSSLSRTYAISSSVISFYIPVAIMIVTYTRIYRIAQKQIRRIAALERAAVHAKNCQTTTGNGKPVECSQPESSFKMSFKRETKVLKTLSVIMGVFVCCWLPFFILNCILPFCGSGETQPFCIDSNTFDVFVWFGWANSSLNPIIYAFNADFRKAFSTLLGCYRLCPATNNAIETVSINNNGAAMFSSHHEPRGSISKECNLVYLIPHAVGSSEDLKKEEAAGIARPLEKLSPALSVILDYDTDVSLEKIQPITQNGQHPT
Sequence of human dopamine D3 receptor (P35462 whole entry): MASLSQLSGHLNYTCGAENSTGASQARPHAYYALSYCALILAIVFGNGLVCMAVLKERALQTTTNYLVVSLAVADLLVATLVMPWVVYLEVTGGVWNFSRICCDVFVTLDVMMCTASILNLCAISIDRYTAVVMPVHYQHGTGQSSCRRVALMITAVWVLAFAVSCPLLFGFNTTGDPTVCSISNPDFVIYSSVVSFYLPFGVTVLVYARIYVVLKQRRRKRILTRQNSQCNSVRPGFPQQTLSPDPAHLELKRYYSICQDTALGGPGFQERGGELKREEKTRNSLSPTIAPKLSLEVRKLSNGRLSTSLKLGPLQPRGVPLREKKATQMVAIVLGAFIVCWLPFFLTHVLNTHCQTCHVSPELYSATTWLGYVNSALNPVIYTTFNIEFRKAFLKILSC
Sequence of Human recombinant dopamine D2L receptor (P14416 whole entry): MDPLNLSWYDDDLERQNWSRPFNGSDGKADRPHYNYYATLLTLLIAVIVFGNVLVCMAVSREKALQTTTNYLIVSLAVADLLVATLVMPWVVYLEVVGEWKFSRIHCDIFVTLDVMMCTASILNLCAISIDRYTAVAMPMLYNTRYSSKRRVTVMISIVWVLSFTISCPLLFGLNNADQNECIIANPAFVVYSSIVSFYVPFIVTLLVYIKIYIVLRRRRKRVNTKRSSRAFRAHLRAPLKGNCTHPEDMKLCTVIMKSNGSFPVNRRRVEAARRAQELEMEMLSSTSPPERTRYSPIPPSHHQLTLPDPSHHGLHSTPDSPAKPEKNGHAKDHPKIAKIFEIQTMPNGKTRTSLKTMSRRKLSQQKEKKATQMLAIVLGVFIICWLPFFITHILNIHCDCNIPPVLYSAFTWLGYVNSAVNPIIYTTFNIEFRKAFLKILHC

Row | SMILES | % Inhibition at 10 μM D4.4 ([1]; Eurofins Discovery) [%] | % Inhibition at 10 μM D3 [2] [%] | % Inhibition at 10 μM D1 [3] [%] | Solubility pH = 2.2 [4] [µM] | Solubility pH = 6.8 [4] [µM] | % Inhibition at 10 μM D2S [5] [%] | IC50 [1, 14] [µM] | Ki [1, 15] [µM] | % Inhibition at 10 μM D2L [6] [%] | CLH human (hepatic clearance) [7] [mL/min/kg] | fu,plasma human (fraction unbound) [8] | fu,plasma rat (fraction unbound) [9] | CLH rat (hepatic clearance) [10] [mL/min/kg] | further results
1 | O=C(c1cc(Cl)cc(Cl)c1)N1CC2(CCN(Cc3c[nH]c4cc(F)ccc34)CC2)C1 [Compound 28] | 49 | – | – | – | – | – | – | – | – | – | – | – | – | –
2 | Cc1ccc(C(=O)N2CCC3(CCN(Cc4c[nH]c5cc(F)ccc45)CC3)C2)cc1C [Compound 42, (3,4-dimethylphenyl)(8-[(6-fluoro-1H-indol-3-yl)methyl)-2,8-diazaspiro[4.5]decan-2-yl)methanone] | – | – | – | – | – | – | – | – | – | – | – | – | – | % Inhibition at D4.4 ([1]; screened at Eurofins): 44%
3 | Cc1ccc(C(=O)N2CC3(CCN(Cc4c[nH]c5cc(F)ccc45)CC3)C2)cc1 [Compound 29] | 99 | 13 | 27 | 91.9 | 85.3 | 5 | 0.062 | 0.017 | 20 | 17.3 | 0.05 | 0.15 | 49.2 | –
4 | O=C(c1ccc2c(c1)OCO2)N1CC2(CCN(Cc3c[nH]c4cc(F)ccc34)CC2)C1 [Compound 20] | 95 | 14 | 16 | 86.4 | 82.7 | 12 | 0.084 | 0.023 | 18 | 13.7 | 0.10 | 0.23 | 36.2 | AUC (area under the curve) [11]: 26.4 ng·h/mL; CLp (plasma clearance) [11]: 126 mL/min/kg; Vss (volume of distribution at steady-state) [11]: 44.4 L/kg; t1/2 (terminal phase plasma half-life) [11]: 4.55 h; in vivo clearance relative to hepatic blood flow (superhepatic clearance) [11]: > 100 % Qh
5 | Cc1ccc(C(=O)N2CC3(CCN(Cc4c[nH]c5cc(F)ccc45)CC3C)C2)cc1C (stereo not drawn) [Compound 13] | 85 | – | – | 90.5 | 88.2 | – | 0.99 | 0.27 | – | – | – | – | – | –
6 | Cc1ccc(S(=O)(=O)N2CC3(CCN(Cc4c[nH]c5cc(F)ccc45)CC3)C2)cc1 [Compound 34] | 94 | 49 | 47 | – | – | 17 | 0.12 | 0.033 | 50 | – | – | – | – | –
7 | Cc1ccc(C(=O)N2CC3(CCN(Cc4cn(C)c5ccccc45)CC3)C2)cc1C [Compound 12] | – | – | – | – | – | – | – | – | – | – | – | – | – | inhibition at 10 µM ([2]; read-out: % Inhibition at 10 μM D3): 19%; inhibition at 10 µM ([3]; read-out: % Inhibition at 10 μM D1): 27%; solubility at 18 h ([4]; pH 2.2, aqueous buffer): 88.3 µM (≈ 35.5 µg/mL); solubility at 18 h ([4]; pH 6.8, aqueous buffer): 87.4 µM (≈ 35.1 µg/mL); inhibition at 10 µM ([5]; read-out: % Inhibition at 10 μM D2S): 24%; IC50 [1]: 0.28 µM; Ki [1]: 0.076 µM; inhibition at 10 µM [1]: 92%; inhibition at 10 µM ([6]; read-out: % Inhibition at 10 μM D2L): 16%
8 | Cc1ccc(C(=O)N2CC3(CCN(Cc4c[nH]c5cc(F)ccc45)C(C)C3)C2)cc1C (stereo not drawn) [Compound 14] | 89 | – | – | – | – | – | 1.92 | 0.53 | – | – | – | – | – | –
9 | Cc1ccccc1C(=O)N1CC2(CCN(Cc3c[nH]c4cc(F)ccc34)CC2)C1 [Compound 33] | 93 | 11 | 9 | 92.9 | 87.7 | 0 | 0.21 | 0.059 | −7 | 16.0 | 0.19 | 0.26 | 39.0 | piperidine N-dealkylation metabolite, relative percentage [12]: 32.4%; turnover in hepatocytes [12]: moderate turnover; parent compound remaining postincubation ([12]; LC/MS relative percentage): 65.8%; AUC (area under the curve) [11]: 27.0 ng·h/mL; CLp (plasma clearance) [11]: 123 mL/min/kg; Vss (volume of distribution at steady-state) [11]: 36.9 L/kg; t1/2 (terminal phase plasma half-life) [11]: 4.02 h; in vivo clearance relative to hepatic blood flow (superhepatic clearance) [11]: > 100 % Qh; piperidine N-dealkylation metabolite, relative percentage [13]: 6.3%; turnover in hepatocytes [13]: low turnover; parent compound remaining postincubation ([13]; LC/MS relative percentage): 87.9%
10 | COc1ncc(CN2CCC3(CC2)CN(C(=O)c2ccc(C)c(C)c2)C3)cc1F [Compound 10] | – | – | – | – | – | – | – | – | – | – | – | – | – | inhibition at 10 µM [1]: 66%
11 | O=C(c1ccc(Cl)cc1Cl)N1CC2(CCN(Cc3c[nH]c4cc(F)ccc34)CC2)C1 [Compound 19] | 92 | 30 | 21 | – | – | 14 | 0.082 | 0.023 | 23 | – | – | – | – | –

More lines, main results first:

Row | % Inhibition at 10 μM D4.4 ([1]; Eurofins Discovery) [%] | % Inhibition at 10 μM D3 [2] [%] | % Inhibition at 10 μM D1 [3] [%] | Solubility pH = 2.2 [4] [µM] | Solubility pH = 6.8 [4] [µM] | % Inhibition at 10 μM D2S [5] [%] | IC50 [1, 14] [µM] | Ki [1, 15] [µM] | % Inhibition at 10 μM D2L [6] [%] | CLH human (hepatic clearance) [7] [mL/min/kg] | fu,plasma human (fraction unbound) [8] | fu,plasma rat (fraction unbound) [9] | CLH rat (hepatic clearance) [10] [mL/min/kg] | SMILES | further results
12 | 91 | 62 | 24 | 84.2 | 31.6 | 25 | 0.081 | 0.022 | 24 | – | – | – | – | Cc1ccc(C(=O)N2CC3(CCN(Cc4ccc(Cl)c(Cl)c4)CC3)C2)cc1C [Compound 9] | –
13 | 92 | 12 | 10 | 91.2 | 87.0 | 18 | 0.49 | 0.14 | 18 | 14.7 | 0.06 | 0.14 | 46.2 | Cc1cccc(C(=O)N2CC3(CCN(Cc4c[nH]c5cc(F)ccc45)CC3)C2)c1 [Compound 32] | –
14 | 90 | 25 | −4 | 89.4 | 83.1 | 15 | 0.15 | 0.043 | 3 | – | – | – | – | Cc1ccc(C(=O)N2CC3(CCN(Cc4n[nH]c5cc(F)ccc45)CC3)C2)cc1C [Compound 6] | –
15 | 94 | 27 | 35 | 83.4 | 87.0 | 25 | 0.2 | 0.056 | 24 | – | – | – | – | Cc1ccc(C(=O)N2CC3(CCN(Cc4c[nH]c5cc(F)ccc45)CC3)C2)cc1C [Compound 5] | –
16 | 88 | 9 | 21 | 95.3 | 88.9 | 8 | 2.79 | 0.25 | 9 | 16.9 | 0.01 | 0.03 | 59.1 | Cc1ccc(C(=O)N2CC3(CCN(Cc4ccc(F)c(F)c4)CC3)C2)cc1C [Compound 4] | AUC (area under the curve) [11]: 28.7 ng·h/mL; CLp (plasma clearance) [11]: 116 mL/min/kg; Vss (volume of distribution at steady-state) [11]: 5.52 L/kg; t1/2 (terminal phase plasma half-life) [11]: 1.05 h; in vivo clearance relative to hepatic blood flow (superhepatic clearance) [11]: > 100 % Qh
